The values below come from patent US4963553A, “4-[(substituted) alkylcarbonyl]-4,5-dihydro- and -4,5,6,7-tetrahydro-7-[(substituted)phenyl]pyrazolo[1,5-a]pyrimidines” (American Cyanamid Co., priority 1988, dated 1990).

Assay [1] has as its system Spontaneously Hypertensive Rats. Put plainly: Hypotensive activity: mean arterial blood pressure in spontaneously hypertensive rats. It counts as in vivo, rat (Okamoto strain, male). Conditions: SHR, gavage, 100 mg/kg or less, two doses 24 h apart, measured at 28 hours; average MABP of rats used 160±1.5 mm. How it is done:
The novel compounds of the invention are active hypotensive agents at nontoxic doses when administered to mammals. These compounds were tested for hypotensive activity by the method of P. S. Chan and D. W. Poorvin, Clinical and Experimental Hypertension, (6), 817-830 (1979). Male, 16 week old, spontaneously hypertensive rats of the Okamoto strain (Taconic Farms, Germantown, N.Y.) having an average means arterial blood pressure of 160±1.5 mm of mercury are used in the test. A rat is dosed by gavage with a test compound, suspended in 2% pre-boiled starch at a concentration of 50 mg/ml, at a dose of 100 mg/kg of body weight or less, with 0.9% sodium chloride loading at a dose of 25 ml/kg of body weight. A second identical dose of the test compound, without sodium chloride loading is given 24 hours later. At 28 hours after the initial dose the mean arterial blood pressure is measured by the method of Chan and Poorvin vide supra.

Assay [2] concerns mice (hypoxic environment). Put plainly: Hypoxic survival test. It is filed as in vivo, mouse (Royal Hart). Conditions: 10% oxygen; for % Survivors / responders at 100 mg/kg: 100 mg/kg; for % Survivors / responders at 200 mg/kg / responders at 100 mg/kg / responders at 10 mg/kg: intraperitoneal, 5 minutes; for responders at 200 mg/kg / responders at 100 mg/kg / responders at 10 mg/kg: Mus musculus, ip, 5 min, read-out: % Survivors. How it is done: The hypoxic survival test is a useful in vivo test for measuring the effectiveness of central nervous system-acting drugs in enhancing survival in an hypoxic environment relative to the known parasympathomimetic agent physostigmine.
Drugs are tested by intraperitoneal injection of groups of mice 30 minutes prior to placing them in an hypoxic environment and measuring survival. The rationale of this test is that drugs which enhance survival under hypoxic conditions without concomitant depression or sedative side effects, do so by enhancing brain metabolism, i.e., by improving energy supply relative to demand and so preserving normal brain function under conditions of reduced energy metabolism. Considering the dependence of the brain on a constant supply of energy, drugs which have this property may have many far-reaching therapeutic indications, including aiding recovery from stroke and closed head injury and reducing the deleterious effects of age-related central nervous system deficits.
In the hypoxic survival test, groups of 20 Royal Hart mice (6 weeks of age) were injected intraperitoneally with a test compound in saline at various doses ranging from 1 to 200 mg/kg, 30 minutes prior to placing them in an hypoxic mixture (10% oxygen, 90% […]) and measuring survival after 5 minutes.
A control group of 20 mice was injected intraperitoneally with saline (0.01 ml/g of body weight) and processed as described above.
Another group of 20 mice was injected intraperitoneally with 0.125 mg/kg of physostigmine in saline and processed as described above.

Counter-ions that a name gives are not always drawn.

`N#Cc1cnn2c1N(C(=O)CN1CCN(C(c3ccccc3)c3ccc(Cl)cc3)CC1)CC=C2c1cccc(C(F)(F)F)c1` (stereo not shown) [Example 21, 4-[[4-[(4-Chlorophenyl)phenylmethyl]-1-piperazinyl]acetyl]-4,5-dihydro-7-[3-(trifluoromethyl)phenyl]pyrazolo[1,5-a]pyrimidine-3-carbonitrile]: the “MABP/mmHg (mean arterial blood pressure)” value in assay [1] was determined as 134 mmHg.
Turning to `Cl.Cl.N#Cc1cnn2c1N(C(=O)CN1CCN(CCc3ccccc3)CC1)CC=C2c1cccc(C(F)(F)F)c1` [Example 132, 4,5-Dihydro-4-[[4-(2-phenylethyl)-1-piperazinyl)acetyl]-7-[3-(trifluoromethyl)phenyl]pyrazolo[1,5-a]pyrimidine-3-carbonitrile, dihydrochloride], the “% Survivors” value in assay [2] came out at 60%.
Take `CCC1=C(c2cccc(C(F)(F)F)c2)n2ncc(C#N)c2N(C(=O)CN2CCN(Cc3ccccc3)CC2)C1` [Example 140, 4,5-Dihydro-6-ethyl-4[[4-(phenylmethyl)-1-piperazinyl]acetyl]7-[3-(trifluoromethyl)phenyl]pyrazolo[1,5-a]pyrimidine-3-carbonitrile]: in assay [2], the responders at 200 mg/kg was found to be 42%.
Regarding `CC1=C(c2ccc(Cl)cc2)n2ncc(C#N)c2N(C(=O)CN2CCN(Cc3cccc(C(F)(F)F)c3)CC2)C1` [Example 142, 7-(4-Chlorophenyl)-4,5-dihydro-6-methyl-4-[[4-[[3-(trifluoromethyl)phenyl]methyl-1-piperazinyl]acetyl]pyrazolo[1,5-a]pyrimidine-3-carbonitrile, dihydrochloride], in assay [2], the responders at 200 mg/kg was found to be 37.5%.
In the case of `COc1cccc(CN2CCN(CC(=O)N3CC(C)=C(c4cccc(Cl)c4)n4ncc(C#N)c43)CC2)c1` [Example 143, 7-(3-Chlorophenyl)-4,5-dihydro-4-[[4-[(3-methoxyphenyl)methyl]-1-piperazinyl]acetyl]-6-methylpyrazolo[1,5-a]pyrimidine-3-carbonitrile, dihydrochloride], in assay [2], the responders at 100 mg/kg was determined as 65%.
Consider `N#Cc1cnn2c1N(C(=O)CN1CCN(Cc3cccc(C(F)(F)F)c3)CC1)CC=C2c1cccc(C(F)(F)F)c1` [Example 145, 4,5-Dihydro-7-[3-(trifluoromethyl)phenyl-4-[[4-[[3-(trifluoromethyl)phenyl]methyl]-1-piperazinyl]acetyl]pyrazolo[1,5-a]pyrimidine-3-carbonitrile, dihydrochloride], for which, in assay [2] (listed as 4,5-Dihydro-4-[[4-[(3-trifluoromethyl-phenyl)methyl]-1-piperazinyl]acetyl]-7-[3-, dihydrochloride), the “% Survivors” value is 85%.
In the case of `COc1cccc(CN2CCN(CC(=O)N3CC=C(c4ccccc4)n4ncc(C#N)c43)CC2)c1` [Example 148, 4,5-Dihydro-4-[[4-[(3-methoxyphenyl)methyl]-1-piperazinyl]acetyl]-7-phenylpyrazolo[1,5-a]pyrimidine-3-carbonitrile], the responders at 100 mg/kg in assay [2] was determined as 55%.
For the molecule `Cc1cccc(C2=CCN(C(=O)CN3CCN(Cc4ccccc4)CC3)c3c(C#N)cnn32)c1` [Example 149, 4,5-Dihydro-7-(3-methylphenyl)-4-[[4-(phenylmethyl)-1-piperazinyl]acetyl]pyrazolo[1,5-a]pyrimidine-3-carbonitrile, hydrochloride], the responders at 100 mg/kg in assay [2] came out at 55%.
Take `COc1cccc(CN2CCN(CC(=O)N3CC=C(c4ccccc4)n4ncc(C#N)c43)CC2)c1` [Example 150, 4,5-Dihydro-4-[[4-[(3-methoxyphenyl)methyl]-1-piperazinyl]acetyl]-7-phenylpyrazolo[1,5-a]pyrimidine-3-carbonitrile, dihydrochloride]: in assay [2], the responders at 10 mg/kg was 45%.
With `N#Cc1cnn2c1N(C(=O)CN1CCN(Cc3ccccc3C(F)(F)F)CC1)CC=C2c1cccc(C(F)(F)F)c1` [Example 151, 4,5-Dihydro-7-[3-(trifluoromethyl)phenyl]-4-[[4-[[2-(trifluoromethyl)phenyl]methyl]-1-piperazinyl]acetyl]pyrazolo[1,5-a]pyrimidine-3-carbonitrile], the responders at 100 mg/kg in assay [2] was found to be 20%.
Regarding `N#Cc1cnn2c1N(C(=O)CN1CCN(Cc3ccccc3C(F)(F)F)CC1)CC=C2c1cccc(C(F)(F)F)c1` [Example 152, 4,5-Dihydro-7-[3-(trifluoromethyl)phenyl]-4-[[4-[[2-(trifluoromethyl)phenyl]methyl]-1-piperazinyl]acetyl]pyrazolo[1,5-]pyrimidine-3-carbonitrile dihydrochloride], the responders at 10 mg/kg in assay [2] is 30%.
As for `N#Cc1cnn2c1N(C(=O)CN1CCN(c3ccc(F)cc3)CC1)CC=C2c1cccc(C(F)(F)F)c1` [Example 153, 4-[[4-(4-Fluorophenyl)-1-piperazinyl]acetyl]4,5-dihydro-7-[3-(trifluoromethyl)phenyl]pyrazolo[1,5-a]pyrimidine-3-carbonitrile, monohydrochloride], the responders at 100 mg/kg in assay [2] was determined as 35%.
For the molecule `O=C(CN1CCN(Cc2ccccc2)CC1)N1CC=C(c2cccc(C(F)(F)F)c2)n2ncc(Br)c21` [Example 154, 3-Bromo-4,5-dihydro-4-[[4-(phenylmethyl)-1-piperazinyl]acetyl]-7-[3-(trifluoromethyl)phenyl]pyrazolo[1,5-a]pyrimidine, dihydrochloride], in assay [2], the responders at 10 mg/kg was 20%.
Consider `O=C(CN1CCN(Cc2ccccc2)CC1)N1CC=C(c2cccc(C(F)(F)F)c2)n2ncc(Cl)c21` [Example 155, 3-Chloro-4,5-dihydro-4-[[4-(phenylmethyl-1-piperazinyl]acetyl]-7-[3-trifluoromethyl)phenylpyrazolo[1,5-a]pyrimidine, dihydrochloride], for which the responders at 100 mg/kg in assay [2] worked out at 25%.
The same measure, in the same setting: as for `N#Cc1cnn2c1N(C(=O)CN1CCN(Cc3ccccc3F)CC1)CC=C2c1cccc(C(F)(F)F)c1` [Example 156, 4-[[4-[(2-Fluorophenyl)methyl]-1-piperazinyl]acetyl]4,5-dihydro-7-[3-(trifluoromethyl)phenyl]pyrazolo[1,5-a]pyrimidine-3-carbonitrile], the figure is 55%; as for `CC1=C(c2cccc(Cl)c2)n2ncc(C#N)c2N(C(=O)CN2CCN(Cc3ccccc3F)CC2)C1` [Example 157, 7-(3-Chlorophenyl)-4-[[4-[(2-fluorophenyl)methyl]-1-piperazinyl]acetyl]-4,5-dihydro-6-methylpyrazolo[1,5-a]pyrimidine-3-carbonitrile, dihydrochloride], 45%; as for `N#Cc1cnn2c1N(C(=O)CN1CCN(C(=O)OCc3ccccc3)CC1)CC=C2c1cccc(C(F)(F)F)c1` [Example 158, 4-[2-[3-Cyano-7-[3-(trifluoromethyl)phenyl]pyrazolo[1,5-a]pyrimidin-4(5H)-yl]-2-oxoethyl]-1-piperazinecarboxylic acid, phenylmethyl ester], 55%.
Still for that read-out and setting: as for `CC1=C(c2cccc(C(F)(F)F)c2)n2ncc(C#N)c2N(C(=O)CN2CCN(Cc3cccc(C(F)(F)F)c3)CC2)C1` [Example 160, 4,5-Dihydro-6-methyl-7-[3-(trifluoromethyl)phenyl]-4-[[4-[[3-(trifluoromethyl)phenyl]methyl]-1-piperazinyl]acetyl]pyrazolo[1,5-a]pyrimidine-3-dihydrochloride], the figure is 40%.
The same measure, in the same setting: the value for `CCC1=C(c2cccc(C(F)(F)F)c2)n2ncc(C#N)c2N(C(=O)CN2CCN(Cc3ccccc3)CC2)C1` [Example 161, 4,5-Dihydro-6-ethyl-4-[[4-(phenylmethyl)-1-piperazinyl]acetyl]-7-[3-(trifluoromethyl)phenyl]pyrazolo[1,5-a]pyrimidine-3-carbonitrile] was 25%; that for `COc1ccc(C(=O)N2CCN(CC(=O)N3CC=C(c4cccc(C(F)(F)F)c4)n4ncc(C#N)c43)CC2)cc1` [Example 162, 4,5-Dihydro-4-[[4-(4-methoxybenzoyl)-1-piperazinyl]acetyl]-7-[3-(trifluoromethyl)phenyl]pyrazolo[1,5-a]pyrimidine-3-carbonitrile] was 45%.
`COc1ccc(C(=O)N2CCN(CC(=O)N3CC=C(c4cccc(C(F)(F)F)c4)n4ncc(C#N)c43)CC2)cc1.Cl` [Example 163, 4,5-Dihydro-4-[[4-(4-methoxybenzoyl)-1-piperazinyl]acetyl]-7-[3-(trifluoromethyl)phenyl]pyrazolo[1,5-a]pyrimidine-3-carbonitrile, monohydrochloride]: in assay [2], the “% Survivors” value came to 25%.
Consider `CNC(=O)Oc1ccc2c(c1)[C@]1(C)CCN(C)[C@@H]1N2C` [physostigimine, reference compound], for which the “mice surviving (physostigmine-treated)” value in assay [2] (after 5 minutes, physostigmine group 0.125 mg/kg intraperitoneal) is on record as 60-80%.
